Assay results from ChEMBL document CHEMBL2203166, “Small Molecule Ligands For Active Targeting Of TrkC-expressing Tumor Cells” (ACS Med Chem Lett, 2012).
The source made the active and inactive calls. No cut-off for these calls is given here.

How the values were obtained:
NIH3T3 [1] = experiment: Cytotoxicity against mouse NIH/3T3 cells after 56 to 60 hrs by MTT assay; format: cell-based; details: for IC50: Mus musculus, NIH3T3; for Activity: mouse, nih3t3
NIH3T3 [2] = experiment: Cytotoxicity against mouse NIH/3T3 cells expressing TrkC receptor after 56 to 60 hrs by MTT assay in presence of 20 uM of IY-IY-TEG; format: functional, cell-based
NIH3T3 [3] = experiment: Cytotoxicity against mouse NIH/3T3 cells after 56 to 60 hrs by MTT assay in presence of 20 uM of IY-IY-TEG; format: cell-based
NIH3T3 [4] = experiment: Cytotoxicity against mouse NIH/3T3 cells expressing TrkC receptor after 56 to 60 hrs by MTT assay in presence of 3.5 nM of growth factor NT3; format: functional, cell-based
4T1 = experiment: Cytotoxicity against mouse 4T1 cells expressing TrkC receptor after 30 hrs by Calcein-AM assay; format: functional, cell-based; details: 4T1, 30 h
NIH3T3 [5] = experiment: Cytotoxicity against mouse NIH/3T3 cells after 56 to 60 hrs by MTT assay in presence of 3.5 nM of growth factor NT3; format: cell-based
NIH3T3 [6] = experiment: Cytotoxicity against mouse NIH/3T3 cells expressing TrkC receptor after 56 to 60 hrs by MTT assay; format: functional, cell-based
[7] = Cytotoxicity against CHO cells; format: cell-based, Cricetulus griseus; details: chinese hamster, read-out: ED50 (the source's name)
MCF7 = experiment: Cytotoxicity against human MCF7 cells; format: functional, cell-based
[8] = Mus musculus, NIH3T3, read-out: IC50

CC[C@H](C)[C@H](N)c1cn([C@@H](Cc2ccc(O)cc2)C(=O)N2CCN(c3nc(NCCOCCOCCOCc4cn(CC#Cc5ccc(-c6c7ccc(=[N+]8CCCCC8)cc-7oc7cc(N8CCCCC8)ccc67)cc5)nn4)nc(N4CCN(C(=O)[C@H](Cc5ccc(O)cc5)n5cc([C@@H](N)[C@@H](C)CC)nn5)CC4)n3)CC2)nn1
IC50 (NIH3T3 [1]): 27.6 µM
Activity (NIH3T3 [2]): inactive
Activity (NIH3T3 [3]): Toxic
Activity (NIH3T3 [4]): inactive
IC50 (4T1): 19.9 µM
Activity (NIH3T3 [5]): Toxic
IC50 (NIH3T3 [6]; [8]): 15.8 µM

C#CCOCCOCCOCCNc1nc(N2CCN(C(=O)[C@H](Cc3ccc(O)cc3)n3cc([C@@H](N)[C@@H](C)CC)nn3)CC2)nc(N2CCN(C(=O)[C@H](Cc3ccc(O)cc3)n3cc([C@@H](N)[C@@H](C)CC)nn3)CC2)n1
Activity (NIH3T3 [1]): Non-toxic
IC50 (NIH3T3 [6]; nih3t3): Not Active

S=c1nc[nH]c2c1ncn2CCOCCOCCn1cc(COCCOCCOCCNc2nc(N3CCOCC3)nc(N3CCOCC3)n2)nn1
Activity (NIH3T3 [1]): Non-toxic
IC50 (NIH3T3 [6]; nih3t3): Not Active

CCCCn1cnc2c(=S)nc[nH]c21
CC50 [7]: 400 µM

Sc1ncnc2nc[nH]c12 [MERCAPTOPURINE ANHYDROUS]
CC50 [7]: 50 µM
IC50 (MCF7): 2790 nM

CC[C@H](C)[C@H](N)c1cn([C@@H](Cc2ccc(O)cc2)C(=O)N2CCN(c3nc(NCCOCCOCCOCc4cn(CCOCCOCCn5cnc6c(=S)nc[nH]c65)nn4)nc(N4CCN(C(=O)[C@H](Cc5ccc(O)cc5)n5cc([C@@H](N)[C@@H](C)CC)nn5)CC4)n3)CC2)nn1
Activity (NIH3T3 [1]): Non-toxic
IC50 (NIH3T3 [6]; nih3t3): Active

CC[C@H](C)[C@@H](C(=O)N1CCN(c2nc(NCCOCCOCCOCc3cn(CC#Cc4ccc(-c5c6ccc(=[N+]7CCCCC7)cc-6oc6cc(N7CCCCC7)ccc56)cc4)nn3)nc(N3CCN(C(=O)[C@H]([C@@H](C)CC)n4cc([C@@H](N)Cc5ccc(O)cc5)nn4)CC3)n2)CC1)n1cc([C@@H](N)Cc2ccc(O)cc2)nn1
IC50 (NIH3T3 [1]): 25.8 µM
Activity (NIH3T3 [2]): Active
Activity (NIH3T3 [3]): Toxic
Activity (NIH3T3 [4]): Active
Activity (NIH3T3 [5]): Toxic
IC50 (NIH3T3 [6]; [8]): 25.8 µM

CCn1cnc2c(=S)nc[nH]c21
CC50 [7]: 600 µM

CN(C)c1ccc2c(-c3ccccc3)c3ccc(N(C)C)cc3[o+]c2c1 [ROSAMINE]
IC50 (MCF7): 390 nM
